Laboratory results reported in PubChem BioAssay AID2060612 (Molecular Pharmacology Branch, DTP, NCI, 2025).

Test system: 565232-114-T-J1-PDC complex spheroid viability
Assay: Anticancer human tumor 565232-114-T-J1-PDC patient-derived bladder carcinoma cell line growth inhibition [CLK]
Conditions: for IC50: curve of first compound; for viability, T/C: stronger effect = lower value; active = viability on the fitted dose curve at most 10% of control; inactive = the rest
Outline: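 Patient-derived tumor cells grown as complex spheroids with HUVEC endothelial cells and mesenchymal stem cells, treated with drug combinations. Concentrations descend in half-log steps from near clinical Cmax, or from 10 microM if Cmax unknown.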

[1] = second compound 0.0316 µM, first compound 0.0316 µM
[2] = second compound 0.0316 µM, first compound 0.1 µM
[3] = second compound 0.0316 µM, first compound 0.316 µM
[4] = second compound 0.0316 µM, first compound 1 µM
[5] = second compound 0.0316 µM, first compound 3.16 µM
[6] = second compound 0.0316 µM, first compound 10 µM
[7] = second compound 0.1 µM, first compound 0.0316 µM
[8] = second compound 0.1 µM, first compound 0.1 µM
[9] = second compound 0.1 µM, first compound 0.316 µM
[10] = second compound 0.1 µM, first compound 1 µM
[11] = second compound 0.1 µM, first compound 3.16 µM
[12] = second compound 0.1 µM, first compound 10 µM
[13] = second compound 0.316 µM, first compound 0.0316 µM
[14] = second compound 0.316 µM, first compound 0.1 µM
[15] = second compound 0.316 µM, first compound 0.316 µM
[16] = second compound 0.316 µM, first compound 1 µM
[17] = second compound 0.316 µM, first compound 3.16 µM
[18] = second compound 0.316 µM, first compound 10 µM
[19] = second compound 1 µM, first compound 0.0316 µM
[20] = second compound 1 µM, first compound 0.1 µM
[21] = second compound 1 µM, first compound 0.316 µM
[22] = second compound 1 µM, first compound 1 µM
[23] = second compound 1 µM, first compound 3.16 µM
[24] = second compound 1 µM, first compound 10 µM
[25] = second compound 3.16 µM, first compound 0.0316 µM
[26] = second compound 3.16 µM, first compound 0.1 µM
[27] = second compound 3.16 µM, first compound 0.316 µM
[28] = second compound 3.16 µM, first compound 1 µM
[29] = second compound 3.16 µM, first compound 3.16 µM
[30] = second compound 3.16 µM, first compound 10 µM
[31] = second compound 10 µM, first compound 0.0316 µM
[32] = second compound 10 µM, first compound 0.1 µM
[33] = second compound 10 µM, first compound 0.316 µM
[34] = second compound 10 µM, first compound 1 µM
[35] = second compound 10 µM, first compound 3.16 µM
[36] = second compound 10 µM, first compound 10 µM
[37] = second compound 0.0316 µM, first compound 0.00316 µM
[38] = second compound 0.0316 µM, first compound 0.01 µM
[39] = second compound 0.1 µM, first compound 0.00316 µM
[40] = second compound 0.1 µM, first compound 0.01 µM
[41] = second compound 0.316 µM, first compound 0.00316 µM
[42] = second compound 0.316 µM, first compound 0.01 µM
[43] = second compound 1 µM, first compound 0.00316 µM
[44] = second compound 1 µM, first compound 0.01 µM
[45] = second compound 3.16 µM, first compound 0.00316 µM
[46] = second compound 3.16 µM, first compound 0.01 µM
[47] = second compound 10 µM, first compound 0.00316 µM
[48] = second compound 10 µM, first compound 0.01 µM
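Note: spheroids exposed to compounds for 7 days before readout.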
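Throughout, for viability, T/C: 100% = DMSO vehicle wells with luminescence normalized to vehicle control.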

CC(CO)NC(=O)c1cc(-c2ccc(Cl)cc2)nn(-c2cnn(C)c2)c1=O (stereo not drawn) + CNC(=O)c1ccc(Nc2nc(OC3CCCC3)c3c(-c4ccc5nc(C)oc5c4)c[nH]c3n2)c(OC)c1
< 31.6 nM: IC50 (second compound 0.316 µM) | IC50 (second compound 1 µM) | IC50 (second compound 3.16 µM) | IC50 (second compound 10 µM)
> 10000 nM: IC50 (second compound 0.0316 µM)
131 nM: IC50 (second compound 0.1 µM)
inactive: viability, T/C [1] 85.2% | viability, T/C [2] 74.3% | viability, T/C [3] 79.8% | viability, T/C [4] 83% | viability, T/C [5] 97.6% | viability, T/C [6] 117% | viability, T/C [7] 50.5% | viability, T/C [8] 51.3% | viability, T/C [9] 48.8% | viability, T/C [10] 47.1% | viability, T/C [11] 51% | viability, T/C [12] 45.4% | viability, T/C [13] 35% | viability, T/C [14] 26.5% | viability, T/C [15] 32.5% | viability, T/C [16] 36.1% | viability, T/C [17] 37.7% | viability, T/C [18] 34% | viability, T/C [19] 22.1% | viability, T/C [20] 23.6% | viability, T/C [21] 23.7% | viability, T/C [22] 21.1% | viability, T/C [23] 23.5% | viability, T/C [24] 22.5% | viability, T/C [25] 17.5% | viability, T/C [26] 18.2% | viability, T/C [27] 19.7% | viability, T/C [28] 18.2% | viability, T/C [29] 22% | viability, T/C [30] 19% | viability, T/C [31] 19.9% | viability, T/C [32] 18.1% | viability, T/C [33] 18.4% | viability, T/C [34] 16.2% | viability, T/C [35] 18.4% | viability, T/C [36] 17.7%

CC(Nc1ccc2c(c1)OCCn1cc(N3C(=O)OCC3C(F)F)nc1-2)C(N)=O (stereo not drawn) + CNC(=O)c1ccc(Nc2nc(OC3CCCC3)c3c(-c4ccc5nc(C)oc5c4)c[nH]c3n2)c(OC)c1
active: viability, T/C [25] 9.27% | viability, T/C [26] 10.4% | viability, T/C [27] 9.44% | viability, T/C [28] 10.1% | viability, T/C [29] 6.97% | viability, T/C [30] 10.2% | viability, T/C [34] 9.16% | viability, T/C [35] 7.38% | viability, T/C [36] 5.93%
inactive: viability, T/C [1] 87.5% | viability, T/C [2] 93.6% | viability, T/C [3] 88.1% | viability, T/C [4] 100% | viability, T/C [5] 101% | viability, T/C [6] 101% | viability, T/C [7] 35.1% | viability, T/C [8] 34.1% | viability, T/C [9] 37.4% | viability, T/C [10] 39.9% | viability, T/C [11] 33.6% | viability, T/C [12] 29.2% | viability, T/C [13] 21.4% | viability, T/C [14] 20.2% | viability, T/C [15] 23.8% | viability, T/C [16] 23.7% | viability, T/C [17] 19.9% | viability, T/C [18] 18% | viability, T/C [19] 15.5% | viability, T/C [20] 15.3% | viability, T/C [21] 12.6% | viability, T/C [22] 14.9% | viability, T/C [23] 13.1% | viability, T/C [24] 9.75% | viability, T/C [31] 12.9% | viability, T/C [32] 10.9% | viability, T/C [33] 13.1%
> 10000 nM: IC50 (second compound 0.0316 µM)
< 31.6 nM: IC50 (second compound 0.1 µM) | IC50 (second compound 0.316 µM) | IC50 (second compound 1 µM) | IC50 (second compound 3.16 µM) | IC50 (second compound 10 µM)

CCN1CCN(Cc2ccc(Nc3ncc(F)c(-c4cc(F)c5nc(C)n(C(C)C)c5c4)n3)nc2)CC1 + CNC(=O)c1ccc(Nc2nc(OC3CCCC3)c3c(-c4ccc5nc(C)oc5c4)c[nH]c3n2)c(OC)c1
inactive: viability, T/C [37] 84.4% | viability, T/C [38] 81.1% | viability, T/C [1] 84.7% | viability, T/C [2] 82.6% | viability, T/C [3] 119% | viability, T/C [4] 129% | viability, T/C [39] 53.9% | viability, T/C [40] 56.5% | viability, T/C [7] 48.7% | viability, T/C [8] 64% | viability, T/C [9] 58.3% | viability, T/C [10] 66.7% | viability, T/C [41] 32.8% | viability, T/C [42] 40.6% | viability, T/C [13] 32.6% | viability, T/C [14] 38.2% | viability, T/C [15] 42.3% | viability, T/C [16] 46.4% | viability, T/C [43] 23.9% | viability, T/C [44] 26.5% | viability, T/C [19] 24.7% | viability, T/C [20] 34.2% | viability, T/C [21] 35.8% | viability, T/C [22] 39.2% | viability, T/C [45] 18.1% | viability, T/C [46] 19% | viability, T/C [25] 25% | viability, T/C [26] 22.9% | viability, T/C [27] 27.2% | viability, T/C [28] 37% | viability, T/C [47] 19.9% | viability, T/C [48] 18.4% | viability, T/C [31] 21.7% | viability, T/C [32] 22.5% | viability, T/C [33] 31.2% | viability, T/C [34] 27.1%
< 3.16 nM: IC50 (second compound 0.316 µM) | IC50 (second compound 1 µM) | IC50 (second compound 3.16 µM) | IC50 (second compound 10 µM)
> 1000 nM: IC50 (second compound 0.0316 µM) | IC50 (second compound 0.1 µM)

COc1c(OCCCN2CCOCC2)ccc2c3n(c(=NC(=O)c4cnc(N)nc4)nc12)CCN3 + CNC(=O)c1ccc(Nc2nc(OC3CCCC3)c3c(-c4ccc5nc(C)oc5c4)c[nH]c3n2)c(OC)c1
inactive: viability, T/C [37] 106% | viability, T/C [38] 81.5% | viability, T/C [1] 84.9% | viability, T/C [2] 94.5% | viability, T/C [3] 118% | viability, T/C [4] 68.7% | viability, T/C [39] 39.5% | viability, T/C [40] 38.5% | viability, T/C [7] 29.8% | viability, T/C [8] 31.7% | viability, T/C [9] 22.6% | viability, T/C [10] 20.8% | viability, T/C [41] 26.9% | viability, T/C [42] 24.1% | viability, T/C [13] 22.4% | viability, T/C [14] 18.9% | viability, T/C [15] 15.8% | viability, T/C [16] 9.27% | viability, T/C [43] 15.4% | viability, T/C [44] 16.9% | viability, T/C [19] 14.5% | viability, T/C [45] 15.6% | viability, T/C [46] 9.18% | viability, T/C [47] 12.3%
> 1000 nM: IC50 (second compound 0.0316 µM)
< 3.16 nM: IC50 (second compound 0.1 µM) | IC50 (second compound 0.316 µM) | IC50 (second compound 1 µM) | IC50 (second compound 3.16 µM) | IC50 (second compound 10 µM)
active: viability, T/C [20] 8.97% | viability, T/C [21] 5.69% | viability, T/C [22] 3.61% | viability, T/C [25] 8.92% | viability, T/C [26] 4.99% | viability, T/C [27] 5.15% | viability, T/C [28] 1.71% | viability, T/C [48] 10.3% | viability, T/C [31] 5.74% | viability, T/C [32] 5.45% | viability, T/C [33] 3.3% | viability, T/C [34] 1.73%
